Experiments:
[1] = In-vitro stability of curcumin in mouse plasma at 37° C; assay type: in vitro ADME
Text: (§1) Therefore, all mouse blood and plasma samples have to be processed on ice to avoid potential degradation for its pharmacokinetic studies.

[2] = Stability of curcumin in reconstituted solution in auto-sampler at 4° C; assay type: physicochemical; details: auto-sampler 4° C, up to 8 hours
Text: as §1

[3] = tested on: DNMT3a; assay: Quantitative RT-PCR of DNMT3a mRNA in MV4-11 cells; assay type: cell-based; details: 10 μM
Protocol: (§2) Cell Cycle and Apoptosis Analysis: MV4-11, ML-1, HL-60 and K562 leukemia cell lines were cultured in RPMI medium (VWR International, Inc., West Chester, Pa.) supplemented with 10% fetal bovine serum (Invitrogen, Carlsbad, Calif.) and 1% (v/v) penicillin/streptomycin (Invitrogen Life Technologies; Carlsbad, Calif.) antibiotic solution at 37° C. in an incubator under 5% CO2 atmosphere. For the ex-vivo studies, mononuclear cells obtained from bone marrow (BM) of patient with AML were prepared by Ficoll-Hypaque (Nygaard) gradient centrifugation and cultured with serum-free expansion medium (SFEM) (StemCell technologies, Vancouver, BC) supplemented with GM-CSF (50 ng/ml), IL-3 (20 ng/ml), IL-6 (20 ng/ml) and SCF ([…]). […] The cell cycle and apoptosis of MV4-11 cells was analyzed on a BD FACS Calibur (Beckman Coulter, Fullerton, Calif.) according to the standard protocol provided by the manufacturer.
(§3) Quantitative RT-PCR was used to quantify the mRNA levels of DNMT1, DNMT3a, DNMT3b, p15INK4B and p21. […] Quantitative real-time PCR reactions were performed in triplicate using Taqman gene expression assay (Applied Biosystems) with an ABI prism 7700 detector (Applied Biosystems). The target gene values were normalized to the values of internal control GAPDH or 18 S, and expressed as relative percent change (100×2^(˜ΔΔCt)) over non-treated samples.

[4] = tested on: DNMT3b; assay: Quantitative RT-PCR of DNMT3b mRNA in MV4-11 cells; assay type: cell-based; details: 10 μM
Protocol: as §2, §3

[5] = tested on: DNMT3a; assay: Western blot of DNMT3a protein in MV4-11 cells; assay type: cell-based
Protocol: (§4) Cell Cycle and Apoptosis Analysis: MV4-11, ML-1, HL-60 and K562 leukemia cell lines were cultured in RPMI medium (VWR International, Inc., West Chester, Pa.) supplemented with 10% fetal bovine serum (Invitrogen, Carlsbad, Calif.) and 1% (v/v) penicillin/streptomycin (Invitrogen Life Technologies; Carlsbad, Calif.) antibiotic solution at 37° C. in an incubator under 5% CO2 atmosphere. […] The cell cycle and apoptosis of MV4-11 cells was analyzed on a BD FACS Calibur (Beckman Coulter, Fullerton, Calif.) according to the standard protocol provided by the manufacturer.
(§5) Cells or tumor tissues were homogenized and lysed in ice-cold lysis buffer (20 mM, pH 7.0 HEPES, 150 mM NaCl, 0.1% NP40 supplemented with 1 mM β-glycerophosphate, 1 mM Na3VO4, 1 mM NaF, 1 mM benzamide and 1 mM phenylmethylsulfonyl fluoride) with protease inhibitors (Protease Inhibitor cocktail Set III, Calbiochem-Novabiochem Corporation, La Jolla, Calif.), and incubated on ice for 20 mM. […] The immunoblotted proteins were detected by ECL reagent (GE Healthcare Bio-Sciences Corp., Piscataway, N.J.).

[6] = tested on: DNMT3b; assay: Western blot of DNMT3b protein in MV4-11 cells; assay type: cell-based
Protocol: as §4, §5

[7] = tested on: DNMT1; assay: DNMT1 mRNA and protein in MV4-11 engrafted tumor tissues; assay type: in vivo; details: MV4-11 engrafted mice, curcumin i.p. 100 mg/kg
Protocol: Cells or tumor tissues were homogenized and lysed in ice-cold lysis buffer (20 mM, pH 7.0 HEPES, 150 mM NaCl, 0.1% NP40 supplemented with 1 mM β-glycerophosphate, 1 mM Na3VO4, 1 mM NaF, 1 mM benzamide and 1 mM phenylmethylsulfonyl fluoride) with protease inhibitors (Protease Inhibitor cocktail Set III, Calbiochem-Novabiochem Corporation, La Jolla, Calif.), and incubated on ice for 20 mM. The lysate was centrifuged at 12,000 g for […] at 4° C. Proteins in the supernatants were resolved on 4-15% SDS-polyacrylamide gradient gels, and then transferred onto nitrocellulose membranes, incubated with appropriate antibodies and subjected to Western blotting. The immunoblotted proteins were detected by ECL reagent (GE Healthcare Bio-Sciences Corp., Piscataway, N.J.).
Quantitative RT-PCR was used to quantify the mRNA levels of DNMT1, DNMT3a, DNMT3b, p15INK4B and p21. Total RNA was extracted with Trizol reagent (Invitrogen, Carlsbad, Calif.) and reverse transcribed by reverse transcriptase (Invitrogen). Quantitative real-time PCR reactions were performed in triplicate using Taqman gene expression assay (Applied Biosystems) with an ABI prism 7700 detector (Applied Biosystems). The target gene values were normalized to the values of internal control GAPDH or 18 S, and expressed as relative percent change (100×2^(˜ΔΔCt)) over non-treated samples. […]

[8] = tested on: DNMT3a; assay: DNMT3a mRNA in MV4-11 engrafted tumor tissues; assay type: in vivo; details: MV4-11 engrafted mice, curcumin i.p. 100 mg/kg
Protocol: (§6) Quantitative RT-PCR was used to quantify the mRNA levels of DNMT1, DNMT3a, DNMT3b, p15INK4B and p21. Total RNA was extracted with Trizol reagent (Invitrogen, Carlsbad, Calif.) and reverse transcribed by reverse transcriptase (Invitrogen). Quantitative real-time PCR reactions were performed in triplicate using Taqman gene expression assay (Applied Biosystems) with an ABI prism 7700 detector (Applied Biosystems). The target gene values were normalized to the values of internal control GAPDH or 18 S, and expressed as relative percent change (100×2^(˜ΔΔCt)) over non-treated samples.
Female athymic nu/nu mice (4-6 weeks old, 18-22 g) were obtained from Charles River Laboratory (Wilmington, Mass.) and acclimated for 1 week in a pathogen-free enclosure before start of study. Animals were given sterile rodent chow and water ad libitum and were housed in sterile filter-top cages with 12 hour light/dark cycles. All experiments were conducted in accordance with the guidelines of the Association for Assessment and Accreditation of Laboratory Animal Care International. […] Tumor volume was calculated by using the equation V=2×A×B^2/3, where A is the longer (horizontal as width) diameter (mm) and B is the shorter (perpendicular as depth) diameter (mm) and expressed in cubic millimeter. […]

[9] = tested on: p15^INK4B; assay: Quantitative RT-PCR of p15INK4B mRNA in leukemia cells; assay type: cell-based; details: for increase of p15INK4B expression level: MV4-11 cells, 10 μM curcumin
Protocol: as §2, §6

[10] = tested on: MV4-11 cells; assay: Cell cycle distribution by flow cytometry; assay type: cell-based; details: 10 μM curcumin, 48 hour
Protocol: as §2

[11] = tested on: MV4-11 cells; assay: Cell viability / anti-proliferation; assay type: cell-based

For `COc1cc(/C=C/C(=O)CC(=O)/C=C/c2ccc(O)c(OC)c2)ccc1O` [curcumin], the half-life [1] was 23.6 min, the “curcumin level (below detection limit)” value ([1]; by 4 hour) was under 1 ng/mL and the curcumin decomposed ([1]; in 2 hours) was “more than 97%”. The “% of original concentrations remaining” value [2] was over 85%, the “DNMT3a mRNA level, % of the control” value ([3]; 48 h) was 50% and the “DNMT3a mRNA level, % of the control” value ([3]; 72 h) was 20%. For the same compound, the “DNMT3b mRNA level, % of the control” value ([4]; 48 h) was 40%, the “DNMT3b mRNA level, % of the control” value ([4]; 72 h) was 10% and the “DNMT3a protein level reduction” value [5] was 50%. The “DNMT3b protein level reduction” value [6] was 50%, the “mRNA level of DNMT1 in engrafted tissues” value [7] was “significantly decreases” and the “protein level of DNMT1 in engrafted tissues, decrease” value [7] was 50%. The “mRNA level of DNMT3a in engrafted tissues” value [8] was “significantly decreases”, the p15INK4B reactivation ([9]; AML primary blast cells) was “reactivated” and the p15INK4B reactivation ([9]; HL-60 leukemia cells) was “reactivated”. For the same compound, the “increase of p15INK4B expression level” value ([9]; 48 hours) was “approximately 12 fold”, the “increase of p15INK4B expression level” value ([9]; 72 hours) was about 43 fold and the “cell population in G0/G1 phase” value [10] was 52.0%. The “cell population in G2/M phase” value [10] was 8.0%, the “cell population in S phase” value [10] was 16.1% and the “cell population in SubG1 phase” value [10] was 24.9%. For the same compound, the IC50 ([11]; Homo sapiens, MV4-11) was 10 to 15 µM and the “cell viability decreased to” value ([11]; MV4-11 cells (FIG. 13B)) was 60-70%.
